We go through 32 compounds from article PMC12040169 (PLOS Biology, 2025).

The first series in a line: in vitro. Conditions: human, hela cells, % viability.
For `Cc1c(C)n(Cc2ccccc2)c2ccc(C(=O)OCCCN(C)C)cc12` [CBK087693], the viability at 28.5 h, 10 µM is 91.7%.
Same read-out and setting: to `Cc1ccc(C2(O)CC3CCC(C2)N3C(=O)C2CCC2)cc1` (centres unmarked) [CBK103860] belongs 99.2%.
The same measure, in the same setting: to `COC(=O)c1sccc1NC(=O)Cc1ccccc1[N+](=O)[O-]` [CBK268146] belongs 98.7%.
Still for that read-out and setting: to `CCCCOc1ccc(C(=O)OC(Cc2cccc3ccccc23)CN(CC)CC)cc1` (centres unmarked) [CBK011965C] belongs 87.7%; to `Fc1ccc2[nH]c3c(c2c1)CCNC31CCN(CCOc2ccccc2)C1` (centres unmarked) [CBK085404T], 98%; to `O=C(O)COc1ccccc1/C=C/c1cc(C(F)(F)F)[nH]c(=O)n1` [CBK287017], 103%.
Consider `CC(C)(C)c1ccc(/C=C/C(=O)n2cccn2)cc1` [CBK263645], for which the viability at 28.5 h, 10 µM came to 85.7%.
On the same count and under the same terms, to `Nc1ncc(-c2cccc(O)c2)nc1-c1ccc(C=O)cc1` [CBK064088] belongs 104%; to `COc1ccc(CC(=O)N2CCC(Cc3ccccc3-c3ccccc3)(C(N)=O)CC2)cc1` [CBK285911], 91.8%; to `O=C(O)CNC(=O)CCn1c(-c2ccccc2)cc2ccccc21` [CBK286780], 99.2%.
Still for that read-out and setting: to `CCNc1cc2ccccc2c(-c2ccc(OC)c(C)c2)n1` [CBK089644] belongs 86%.
On the same count and under the same terms, the value for `CC(=O)Nc1ccc(NC(=O)CCn2c(-c3cccc(C)c3)n[nH]c2=S)cc1Cl` [CBK296656] was 99.3%; that for `COc1ccc(OC)c(-n2c(C)cn3c4c(=O)[nH]c(=O)n(C)c4nc23)c1` [CBK141314] was 59.5%.
For the compound `COc1ccc(C2CC(=O)C(=CNCCCN3CCOCC3)C(=O)C2)cc1` (centres unmarked) [CBK263647], the viability at 28.5 h, 10 µM turned out to be 84.9%.
With `Fc1ccc(CNCCN2CCOCC2)cc1` [CBK278192C], the viability at 28.5 h, 10 µM amounted to 105%.
Regarding `O=C(Cc1ccc(Cl)cc1)NC(=S)Nc1ccccc1[N+](=O)[O-]` [CBK263909], the viability at 28.5 h, 10 µM came to 95.4%.
On the same count and under the same terms, the value for `CC(=O)c1c(-c2cccc3ccccc23)nc2n(CCN3CCCCC3)c3ccccc3n12` [CBK278243C] was 103%; that for `COc1cnc(-c2ccccc2OC)c(NC(=O)Cc2ccccc2)n1` [CBK145260] was 95.8%; that for `COc1cc(Cn2ncc(N3CCCCC3)cc2=O)cc(OC)c1` [CBK307662] was 97.1%.
Same read-out and setting: the value for `CSc1ccccc1C(=O)Nc1nccs1` [CBK288225] was 88.7%; that for `Cc1ccc(CN(CCCn2ccnc2)Cc2[nH]cnc2C)s1` [CBK283138] was 90.3%; that for `COc1cc(/C=N/NC(=O)c2ccncc2)ccc1OC(=O)c1cccs1` [CBK262278] was 103%.
As for `O=c1cc(N2CCCC2)cnn1Cc1cscn1` [CBK304635], the viability at 28.5 h, 10 µM amounted to 84.1%.
Still for that read-out and setting: the value for `CN/C(=N\C1CCCCC1)N1CCOCC1` [CBK023800G] was 92.2%; that for `COc1ccc(Cl)cc1Nc1ncnc(N)n1` [CBK288195] was 100%; that for `CN(C)CC1CCCCN1C(=O)C1CC(=O)N(c2cccc(F)c2)C1` (centres unmarked) [CBK282192] was 108%.
For `O=C(CSc1nnc(-c2cccnc2)n1Cc1ccccc1)Nc1ccc(F)cc1` [CBK267528], the viability at 28.5 h, 10 µM was found to be 96.8%.
The same measure, in the same setting: the value for `CC(=O)Nc1ccc(S(=O)(=O)N2CCC(n3c(=O)[nH]c4ccccc43)CC2)cc1` [CBK149696] was 92.3%; that for `CC(=O)Nc1cccc(C(=O)N2CCC(OCc3ccccn3)CC2)c1` [CBK307009] was 114%.
On the same count and under the same terms, to `O=C(c1ccc(OC(F)F)cc1)N1CCCc2cc(S(=O)(=O)N3CCCCC3)ccc21` [CBK295621] belongs 118%; to `CCCc1oc(C(=O)O)cc1CN1CCOCC1` [CBK267984C], 106%.

The series is the same for the next values; noted with them: human, hela cells, % viability, bulk resorufin, single well.
With `Cc1ccc(CN2CCN(Cc3ccc([N+](=O)[O-])cc3)CC2)cc1` [CBK263168], the viability at 28.5 h, 10 µM stood at 92.9%.

For orientation: viability means a read-out of living cells in per cent, often relative to untreated cells.
